Structures can show the parent of a compound that is named as a salt.
How the values were obtained:
NK1 receptor = target: T1, NK1 receptor (Meriones unguiculatus, UniProt Q5DUB1); assay: gerbil foot tapping model (GR73632-induced, icv); assay type: in vivo
T1 construct: from tissue; host or cells: living gerbil, central nervous system (in vivo)
Text: The ability of the compounds of the invention to penetrate the central nervous system and to bind at the NK1 receptor may be determined using the gerbil foot tapping model as described by Rupniak & Williams, Eur. Jour. of Pharmacol., 1994.
Intracerebroventricular (icv) administration of the NK1 receptor agonist GR73632 (R. M. Hagan et al., Neuropeptides 1991, 19 (2), 127-135) a characteristic hind leg foot tapping (GFT) response in gerbils which can be inhibited by potent NK1 receptor antagonists. The gerbil foot tapping paradigm was carried out as follows; gerbils were dosed with compound of the invention, and following an appropriate pre-treatment time were anaesthetised using isofluorane/oxygen mixture. The skull was then exposed and 5 ul of GR73632 (3 pmol conc.) was injected by insertion of a cuffed 25 G needle to a depth of 4 mm below bregma, directly into the lateral ventricle (intracerebroventricular dosing). Immediately following the injection, gerbils were placed individually into a clear observation box to recover. Upon the gerbil regaining its righting reflex, the duration of repetitive hind foot tapping was recorded over a 5 minute period. […]

common marmosets = assay: marmoset human threat test; assay type: in vivo, common marmoset; conditions: for No. jumps (index of locomotor activity): 1 h before test, mean±SEM n=4, vehicle 16.3 ± 1.7
Method: For example the marmoset human threat test (Costall et al., 1988 The study utilised in house laboratory-bred male and female common marmosets over 2 years of age, weighing 300-500 g. The animals were caged in couples, in a housing room maintained at 25±1° C., 60% humidity and a 12 hour light/dark cycle (lights on at 0600, with 30 min simulated dawn and twilight). Testing was carried out with the animals situated in the home cage. One hour before the test animals were treated orally with vehicle (0.5% HPMC) or test compound (1 ml/kg). After a wash-out period of at least three days, treatments were reassigned and the study was complete when all animals had received all treatments. Number of specific behavioural postures in response to the human threat and the number of jumps were analysed in this study. The postures recorded in the test were those described by Costall et al (1988). and the number of jumps from the back of the cage to the cage front provided an index of locomotor activity to assess potential for sedation or locomotor stimulation. […] Results are expressed as mean±SEM (n=7). of number of postures and as a mean±SEM (n=4) of number of jumps. Data were subjected to one-way analysis of variance (ANOVA) followed by Dunnett's test, comparing each compound dose with vehicle treatment, using Statistica software (version 8.0) Statistically significant differences with respect to vehicle are indicated as *P<0.01.

T1 sequence (Q5DUB1 whole entry): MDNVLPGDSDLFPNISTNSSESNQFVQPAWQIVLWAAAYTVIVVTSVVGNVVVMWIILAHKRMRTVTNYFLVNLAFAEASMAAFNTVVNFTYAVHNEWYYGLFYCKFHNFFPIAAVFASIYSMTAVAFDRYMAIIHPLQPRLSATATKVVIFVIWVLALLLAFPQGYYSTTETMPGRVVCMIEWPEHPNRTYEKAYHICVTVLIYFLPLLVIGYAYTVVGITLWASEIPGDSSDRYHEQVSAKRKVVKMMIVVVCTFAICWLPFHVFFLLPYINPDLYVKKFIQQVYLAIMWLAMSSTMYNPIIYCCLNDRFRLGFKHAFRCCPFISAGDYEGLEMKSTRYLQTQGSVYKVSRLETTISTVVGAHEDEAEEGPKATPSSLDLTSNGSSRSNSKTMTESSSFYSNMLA

GR73632-induced foot tapping behaviour (NK1 receptor; 0.3, 1.0 and 3.0 mg/kg p.o., P<0.01): significantly attenuated | ID50 as plasma concentration (NK1 receptor; plasma, p.o.): approximately 5 ng/ml | No. jumps (index of locomotor activity) (common marmosets; 0.1 mg/kg oral): 20.1 ± 2.1 | No. jumps (index of locomotor activity) (common marmosets; 0.3 mg/kg oral): 13.4 ± 2.5 | No. jumps (index of locomotor activity) (common marmosets; 1 mg/kg oral): 13.0 ± 2.1
Compound: Cc1cc(F)ccc1-c1cc([C@H]2CC[C@](C)(C(N)=O)N2)ncc1N(C)C(=O)C(C)(C)c1cc(C(F)(F)F)cc(C(F)(F)F)c1 [Example 11, (5R)-5-[5-[{2-[3,5-bis(trifluoromethyl)phenyl]-2-methylpropanoyl}(methyl)amino]-4-(4-fluoro-2-methylphenyl)-2-pyridinyl]-2-methyl-D-prolinamide bis-hydrochloride]
effect on number of jumps (common marmosets; 0.1, 0.3 or 1 mg/kg oral): not accompanied by a reduction in the number of jumps | effect on number of postures (common marmosets; 0.1, 0.3 or 1 mg/kg oral, significant at 0.3 and 1 mg/kg (P<0.01)): dose dependent reduction in the number of postures

From US9006271B2, “5-[5-[2-(3,5-bis(trifluoromethyl)phenyl)-2-methylpropanomethylpropanoylmethylamino]-4-(4-fluoro-2-methylphenyl)]-2-pyridinyl-2-alkyl-prolinamide as NK1 receptor antagonists” (Nerre Therapeutics Limited, priority 2008, dated 2015)
